Patent US20240327354A1, “GRAM-NEGATIVE BACTERIA EFFLUX PUMP INHIBITORS” (INSTITUT NATIONAL DE LA SANTÉ ET DE LA RECHERCHE MÉDICALE, priority 2021, published 2024)
Structures can show the parent of a compound that is named as a salt.

System: E. coli BW25113
Assay: Assay 1: growth inhibition of E. coli by sub-inhibitory pyridomycin in combination with examples (resazurin reduction)
Assay type: cell-based, Escherichia coli
Conditions: read-out: EC50 on E. coli with 8 μg/mL of pyridomycin, 8 μg/mL pyridomycin, 5 h, 37° C.
Source text: Escherichia coli BW25113 (CGSC 7636) and its derivatives E. coli ΔtolC (JW5503-1, ΔtolC732::kan, CGSC 11430), E. coli ΔacrA (JW0452-3, ΔacrA748::kan, CGSC 11843) and E. coli ΔacrB (JW0451-2, ΔacrB747::kan, CGSC 8609) were obtained from E. coli Genetic Stock Center (CGSC, New Haven, Connecticut) and originated from the Keio Collection (Baba T et al, Mol Sys Biol, 2006). Klebsiella pneumoniae (LMG 2095/ATCC 13883) and K. pneumoniae (ATCC43816), Pseudomonas aeruginosa (PAO1), Acinetobacter baumannii (LMG 1025, ATCC 17978), were obtained from ATCC or BCCM/LMG Bacteria Collection. All bacteria were grown and tested in cation-adjusted Mueller-Hinton broth (CAMHB; BD Difco) at 37° C. For conservation, log phase bacteria were frozen (−80° C.) in CAMHB supplemented with 15% glycerol.
Briefly, E. coli BW25113 were diluted from frozen or growing stocks to an OD600 of 0.0004-0.001 in CAMHB. […] E. coli BW25113 viability was evaluated using the resazurin reduction assay, and measured by fluorescence (POLARstar Omega, BMG Labtech: Ex: 530 nm Em: 590 nm). EC50 were defined as the compound concentration that prevented 50% of resazurin turnover compared to the non-treated bacteria.

| Compound | EC50 |
| --- | --- |
| NCc1ccc(C(F)(F)F)c(-c2ccc3nc(N4CCNCC4)c(Cl)cc3c2)c1 [Example 122, [3-(3-chloro-2-piperazin-1-yl-6-quinolyl)-4-(trifluoromethyl)phenyl]methanamine;dihydrochloride] | < 5 µM |
| NCC1CCCN(c2ccc3nc(N4CCNCC4)c(Cl)cc3c2)C1 (stereo not shown) [Example 68, [1-(3-chloro-2-piperazin-1-yl-6-quinolyl)-3-piperidyl]methanamine;dihydrochloride] | < 5 µM |
| NCc1cccc(-c2ccc3nc(N4CCNCC4)c(Cl)cc3c2)c1Cl [Example 136, [2-chloro-3-(3-chloro-2-piperazin-1-yl-6-quinolyl)phenyl]methanamine;dihydrochloride] | < 5 µM |
| NCC#Cc1cnc(N2CCNCC2)c(Cl)c1 [Example 85, 3-(5-chloro-6-piperazin-1-yl-3-pyridyl)prop-2-yn-1-amine; 2,2,2-trifluoroacetic acid] | 5 to 100 µM |
| NCCCNc1ccc2nc(N3CCNCC3)c(Cl)cc2c1 [Example 63, N′-(3-chloro-2-piperazin-1-yl-6-quinolyl)propane-1,3-diamine; dihydrochloride] | < 5 µM |
| NCc1cccc(COc2cnc(N3CCNCC3)c(Cl)c2)c1 [Example 78, [3-[(5-chloro-6-piperazin-1-yl-3-pyridyl)oxymethyl]phenyl]methanamine;dihydrochloride] | 5 to 100 µM |
| Clc1cc2cc(Br)ccc2nc1N1CCNCC1 [Example 60, 6-bromo-3-chloro-2-piperazin-1-yl-quinoline;hydrochloride] | 5 to 100 µM |
| NCCCn1cc(-c2ccc3nc(N4CCNCC4)c(Cl)cc3c2)nn1 [Example 93, 3-[4-(3-chloro-2-piperazin-1-yl-6-quinolyl)triazol-1-yl]propan-1-amine;dihydrochloride] | < 5 µM |
| Cc1cnc(N2CCN(C)CC2)c(Cl)c1 [Example 10, 1-(3-chloro-5-methyl-2-pyridyl)-4-methyl-piperazine] | 5 to 100 µM |
| OCc1cccc(-c2ccc3nc(N4CCNCC4)c(Cl)cc3c2)c1 [Example 108, [3-(3-chloro-2-piperazin-1-yl-6-quinolyl)phenyl]methanol;hydrochloride] | < 5 µM |
| Clc1cc2cc(I)ccc2nc1N1CCNCC1 [Example 61, 3-chloro-6-iodo-2-piperazin-1-yl-quinoline;hydrochloride] | < 5 µM |
| NCCn1cc(-c2ccc3nc(N4CCNCC4)c(Cl)cc3c2)nn1 [Example 94, 2-[4-(3-chloro-2-piperazin-1-yl-6-quinolyl)triazol-1-yl]ethanamine;dihydrochloride] | < 5 µM |
| CN1CCN(c2nc3ccccc3cc2Cl)CC1 [Example 81, 3-chloro-2-(4-methylpiperazin-1-yl)quinoline] | 5 to 100 µM |
| Clc1cc(C#Cc2ccccc2)cnc1N1CCNCC1 [Example 89, 1-[3-chloro-5-(2-phenylethynyl)-2-pyridyl]piperazine; 2,2,2-trifluoroacetic acid] | 5 to 100 µM |
| Cc1nnc(-c2cnc(N3CCNCC3)c(Cl)c2)o1 [Example 72, 2-(5-chloro-6-piperazin-1-yl-3-pyridyl)-5-methyl-1,3,4-oxadiazole] | 5 to 100 µM |
| Cc1cnc(N2CCNCC2)c(Cl)c1 [Example 12, 1-(3-chloro-5-methyl-2-pyridyl)piperazine; hydrochloride] | 5 to 100 µM |
| Cc1nc(-c2cnc(N3CCNCC3)c(Cl)c2)no1 [Example 73, 3-(5-chloro-6-piperazin-1-yl-3-pyridyl)-5-methyl-1,2,4-oxadiazole;hydrochloride] | 5 to 100 µM |
| NCc1cncc(-c2ccc3nc(N4CCNCC4)c(Cl)cc3c2)c1 [Example 132, [5-(3-chloro-2-piperazin-1-yl-6-quinolyl)-3-pyridyl]methanamine;dihydrochloride] | < 5 µM |
| NCCc1ccc(C(=O)Nc2cnc(N3CCNCC3)c(Cl)c2)cc1 [Example 71, 4-(2-aminoethyl)-N-(5-chloro-6-piperazin-1-yl-3-pyridyl)benzamide;dihydrochloride] | 5 to 100 µM |
